Patent publication US8815305B2, “Composition containing a plant extract and process for producing same” (BASF Beauty Care Solutions France S.A.S., priority 2003, dated 2014)

Key:
[1] = Toxicity tests and growth tests on human fibroblasts (cellular proteins, Bradford); format: cell-based; conditions: human
human fibroblasts [2] = assay: as above; format: cell-based
human fibroblasts [3] = assay: Survival efficacy test on human fibroblasts (DNA, ATP, proteins, GSH); format: cell-based; conditions: for ATP / DNA / GSH/proteins / Proteins: quiescent fibroblasts, 3 days
Method: Human fibroblasts were inoculated in a standard medium of a cell culture with foetal calf serum (FCS). After an incubation of 3 days the cells became quiescent, then the growth medium was exchanged for a standard medium with a range of concentrations for each ingredient to be tested. After an incubation of 3 days, the number of viable cells was determined by evaluation of the levels of and the rates of cellular DNA (fluorescent probe), ATP (enzymatic method), proteins (Bradford's method) and GSH which is evaluated according to the method of Hissin (Hissin P. J., Hilf R. A, fluorometric method for determination of oxidised and reduced Glutathione in tissues. Analytical Biochemistry (1977) volume 74, pages 214-226).

human fibroblasts [4] = assay: Cytophotoprotection of human fibroblasts against UV-A radiation; format: cell-based
Method: The cytoprotection against UV-A radiation was evaluated by a test on human fibroblasts because UV-A radiation penetrates through the epidermis until the derma where it induces oxidative stress (DALLE CARBONARE M, PATHAK M A; Skin photosensitising agents and the role of reactive oxygen species in photoaging; JOURNAL OF PHOTOCHEMISTRY & PHOTOBIOLOGY, 1992, 14, 1-2, pages 105-124. This oxidative stress was evaluated in vitro by measuring of the level of released MDA (malonaldehyde) and of intracellular GSH (reduced glutathione) (Morliere P., Moisan A., Santus R., Huppe G., Mazière J. C., Dubertret L.: UV-A induced lipid peroxydation in cultured human fibroblasts. Biochim. Biophys. Acta, 1084, 3, pages 261-269 (1991)).
Expressed in keywords, the experiments were carried out as follows: • Inoculation of human fibroblasts within a growth medium (standard medium with foetal calf serum (FCS) • Incubation 3 days at 37° C., CO2=5% • Exchange of growth medium with balanced salt solution • Irradiation of fibroblasts by UV-A: 20 J/cm^2 (black light TFWN lamp) (A TFWN lamp is a certain type of marketed sunlamp well known to the skilled artisan) • Exchange of growth medium with standard medium without FCS but containing ingredient to be tested • Incubation 3 days at 37° C., CO2=5% • Recovery of supernatant medium for spectrophotometric determination of the malonaldialdehde (or MDA) rate • Cells number determined by evaluation of the levels of cellular proteins (Bradford's method) and the rate of cellular GSH was evaluated according to the method of Hissin

human keratinocytes = assay: Cytophotoprotection of human keratinocytes against UV-B radiation; format: cell-based; conditions: for Cell number, % against control / Released LDH, % against control / Released PGE2, % against control: UVB
Excerpt: UV-B irradiation (from 280 to 320 nm) of the human skin induces a cutaneous inflammation mainly by activation of an enzyme (phospholipase A2 or PLA2), which releases arachidonic acid from the cell membranes of the cells of the skin (V. A. De Leo, D. Hanson, I. B. Weinstein and L. C. Harber—Ultraviolet radiation stimulates the release of arachidonic acid from mammalian cells in culture—Photochemistry and Photobiology (1985) volume 41N°1 pages 51-56). Then other specific enzymes (so called cyclo-oxygenases) transform arachidonic acid in active components called prostaglandines (or PG) which are secreted out of the cells. The fixation of certain prostaglandins (PGE2) on specific skin receptors is followed by redness and swelling as after a sunburn. On cultured human cells, these UV-B effects on cell membranes are associated with a release in the supernatant medium of a cytoplasmic enzyme, the Lactate Dehydrogenase or LDH (B. Bonnekoh, B. Farkas, J. Geisel and G. Mahrle—Lactate dehydrogenase release as an indicator of dithranol-induced membrane injury in cultured human keratinocytes. Dermatological research (1990) volume 282, pages 325-331).
Expressed in keywords, the experiments were carried out as follows: • Inoculation of human keratinocytes within growth medium (standard medium with fetal calf serum (FCS) • Incubation 3 days at 37° C., CO2=5% • Exchange of growth medium with balanced salt solution containing ingredient to be tested • Irradiation of keratinocytes by UV-B: 50 mJ/cm^2 (DUKE GL40E lamp) (A DUKE GL40E lamp is a certain type of marketed sunlamp well known to the skilled artisan) • Incubation 1 day at 37° C., CO2=5% • Numeration of adherent cells after trypsination (trypsination is a process based on the use of the enzyme trypsine which is a protease allowing the retrieval of cell from the support in order to seed the cells into a bigger flask and therefore to expand the cell culture) • Recovery of supernatant medium for spectrophotometric determination of the activity of LDH, and PGE2 by ELISA method

elastase from pancreas = elastase from pancreas (Sus scrofa, UniProt P00772); assay: Elastase inhibition, Elastin-Congo red as substrate; format: biochemical
Method: This test was carried out with an elastase from pancreas on Elastin labelled with Congo red. The time of incubation was 30 minutes at room temperature and the optical density of released Congo red was recorded after centrifugation at a wavelength of 520 nm. al-antitrypsine was used as positive reference.
The following table summarizes the results expressed as EC 50 in % w/v. (EC 50 in % w/v is the concentration in % w/v which reduces the enzymatic activity by 50%.)

[5] = target: T1, human leucocyte elastase (HLE) (Homo sapiens, UniProt P08246); conditions: cited from earlier work
T1 sequence (P08246 30-267): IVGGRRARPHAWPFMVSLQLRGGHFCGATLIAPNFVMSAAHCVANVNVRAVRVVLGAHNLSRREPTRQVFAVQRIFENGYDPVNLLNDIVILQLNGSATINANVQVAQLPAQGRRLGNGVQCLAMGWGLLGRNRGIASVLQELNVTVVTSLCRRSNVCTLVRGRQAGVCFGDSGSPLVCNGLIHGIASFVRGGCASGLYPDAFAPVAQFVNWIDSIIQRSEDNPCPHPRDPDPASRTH

[6] = tested on: skin chronic inflammation; conditions: in vivo; cited from earlier work

Chain of elastase from pancreas (P00772 27-266): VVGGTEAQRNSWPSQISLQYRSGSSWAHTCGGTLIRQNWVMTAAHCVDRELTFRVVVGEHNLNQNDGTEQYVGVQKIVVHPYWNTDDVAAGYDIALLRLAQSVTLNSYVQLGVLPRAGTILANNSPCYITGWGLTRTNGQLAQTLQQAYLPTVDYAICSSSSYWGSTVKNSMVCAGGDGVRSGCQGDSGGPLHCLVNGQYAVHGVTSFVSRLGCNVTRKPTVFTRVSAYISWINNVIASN

CC1(C)CC[C@]2(CO)CC[C@]3(C)C(=CC[C@@H]4[C@@]5(C)CC[C@H](O)C(C)(C)[C@@H]5CC[C@]43C)[C@@H]2C1 [erythrodiol]
viability at 3 days, 0.0001 % [1]: 104% | viability at 3 days, 0.0003 % [1]: 105% | viability at 3 days, 0.001 % [1]: 43% | viability at 3 days, 0.003 % [1]: 34% | LD50 (% w/v) (human fibroblasts [2]; human fibroblasts, 3 days incubation): 0.0009% w/v | safe at concentrations up to (human fibroblasts [2]; human, 3 days): up to 0.0003% | ATP (human fibroblasts [3]; 0.00001% w/v): 107% | DNA (human fibroblasts [3]; 0.00001% w/v): 96% | GSH/proteins (human fibroblasts [3]; 0.00001% w/v): 120% | Proteins (human fibroblasts [3]; 0.00001% w/v): 100% | ATP (human fibroblasts [3]; 0.00003% w/v): 99% | DNA (human fibroblasts [3]; 0.00003% w/v): 108% | GSH/proteins (human fibroblasts [3]; 0.00003% w/v): 141% | Proteins (human fibroblasts [3]; 0.00003% w/v): 97% | ATP (human fibroblasts [3]; 0.0001% w/v): 66% | DNA (human fibroblasts [3]; 0.0001% w/v): 78% | GSH/proteins (human fibroblasts [3]; 0.0001% w/v): 101% | Proteins (human fibroblasts [3]; 0.0001% w/v): 91% | ATP (human fibroblasts [3]; 0.0003% w/v): 73% | DNA (human fibroblasts [3]; 0.0003% w/v): 59% | GSH/proteins (human fibroblasts [3]; 0.0003% w/v): 88% | Proteins (human fibroblasts [3]; 0.0003% w/v): 83% | amount of GSH synthesized by human fibroblasts (human fibroblasts [3]; only at a concentration of 0.00003%): modified | protection of human fibroblasts from toxic UVA effects (human fibroblasts [4]): moderately protected | GSH/protein, % against control (human fibroblasts [4]; UV-A 20 J/cm^2, dose 0.0001%): 94% | Released MDA, % against control (human fibroblasts [4]; UV-A 20 J/cm^2, dose 0.0001%): 81% | cell's protein, % against control (human fibroblasts [4]; UV-A 20 J/cm^2, dose 0.0001%): 139% | GSH/protein, % against control (human fibroblasts [4]; UV-A 20 J/cm^2, dose 0.0003%): 22% | Released MDA, % against control (human fibroblasts [4]; UV-A 20 J/cm^2, dose 0.0003%): 70% | cell's protein, % against control (human fibroblasts [4]; UV-A 20 J/cm^2, dose 0.0003%): 42% | UV toxic effects on the number of viable cells (cell number and released LDH) (human keratinocytes): not modified | Cell number, % against control (human keratinocytes; dose 0.00001%): 21% | Released LDH, % against control (human keratinocytes; dose 0.00001%): 135% | Released PGE2, % against control (human keratinocytes; dose 0.00001%): 135% | Cell number, % against control (human keratinocytes; dose 0.00003%): 23% | Released LDH, % against control (human keratinocytes; dose 0.00003%): 118% | Released PGE2, % against control (human keratinocytes; dose 0.00003%): 164% | inhibition of proteases such as elastase (elastase from pancreas): good potential to inhibit | IC50 (elastase from pancreas; 30 minutes at room temperature, Elastin-Congo red, read-out: Elastase EC 50 (concentration which reduces the enzymatic activity by 50%) (converted)): 1810 µM | interaction with the ursolic acid binding site of HLE [5]: can also interact with this binding site | activity on chronic dermal inflammation [6]: significantly effective
